Patent US9737515B2, “Compositions and methods for inhibiting tumor growth” (Consejo Nacional De Investigaciones Cientificas Y Tecnicas …, priority 2015, dated 2017)

Tests used:
[1] = test system: MCF-7 Tet-Off/ACSL4 cells; assay: BrdU incorporation cell proliferation assay in MCF-7 Tet-Off/ACSL4 cells; type: cell-based, human
Method: (§1) MCF-7 Tet-Off empty vector and MCF-7 Tet-Off/ACSL4 cells were plated at a density of 4000 cells/well in 96-well plates with 10% FBS-supplemented D-MEM medium and allowed to adhere overnight at 37° C. in a humidified, 5% CO2 atmosphere. The medium was then changed to serum-free medium. After 24 h, the cells were switched to 10% FBS-supplemented D-MEM medium and incubated with rapamycin (10 nM) and/or rosiglitazone (75 μM) for 96 h. Subsequently, cell proliferation was measured by the bromo-deoxyuridine (BrdU) incorporation assay.
Following the same procedure as that described in Example 1 above, the cells were switched to 10% FBS-supplemented D-MEM medium and incubated with rosiglitazone (10 or 25 μM) and/or 4-hydroxytamoxifen (4-OHTAM, 2.5 or 5.0 μM). Both rosiglitazone and 4-hydroxytamoxifen were tested alone at each of the concentrations used, and in all the possible combinations with each other (see FIG. 6A).

[2] = test system: MCF-7 Tet-Off empty vector cells; assay: BrdU incorporation cell proliferation assay in MCF-7 Tet-Off empty vector cells; type: cell-based; conditions: Homo sapiens, MCF7, 96 h, vs control cells
Method: as §1

With CO[C@H]1C[C@@H]2CC[C@@H](C)[C@@](O)(O2)C(=O)C(=O)N2CCCC[C@H]2C(=O)O[C@H]([C@H](C)C[C@@H]2CC[C@@H](O)[C@H](OC)C2)CC(=O)[C@H](C)/C=C(\C)[C@@H](O)[C@@H](OC)C(=O)[C@H](C)C[C@H](C)/C=C/C=C/C=C/1C [Rapamycin] the inhibition at 0.01 µM ([1]; Homo sapiens, MCF7, 96 h, Rapamycin 10 nM, vs control cells) was 25%, the “% inhibition of cell proliferation” value ([1]; Rapamycin 10 nM, 96 h, vs control cells) was 22.159% and the inhibition at 0.01 µM ([2]; Rapamycin 10 nM) was 12.2%.

For 4-hydroxytamoxifen [4-OHT], the “% inhibition of cell proliferation” value ([1]; 4-OHT 2.5 μM, 96 h) was 0.802%, the “% inhibition of cell proliferation” value ([1]; 4-OHT 5 μM, 96 h) was 3.464% and the “inhibition of cell proliferation (in words)” value ([1]; rosiglitazone 10 or 25 μM and/or 4-OHTAM 2.5 or 5 μM, 96 h, FIG. 6A) was “did not produce a significant inhibition”.

For CN(CCOc1ccc(CC2SC(=O)NC2=O)cc1)c1ccccn1 (stereo not shown) [Rosiglitazone], the inhibition at 10 µM ([1]; Homo sapiens, MCF7, 96 h, Rosiglitazone 10 μM) was 1.88%, the inhibition at 25 µM ([1]; Homo sapiens, MCF7, 96 h, Rosiglitazone 25 μM) was 7.97% and the inhibition at 75 µM ([1]; Homo sapiens, MCF7, 96 h, Rosiglitazone 75 μM, vs control cells) was 28.5%. For the same molecule, the inhibition at 75 µM ([2]; Rosiglitazone 75 μM) was 2.81%.
